Assay results as given in US4055640A, “Compositions and methods for controlling the growth of bacteria, fungi and algae using certain derivatives of N-(2,2-dichlorovinyl)salicylamides” (Nippon Kayaku Co., Ltd., priority 1975, dated 1977).
Where a name gives a salt, the structure may show the parent alone.

Columns and labels:
[1] = test system: cucumber (variety; Tokiwazibai); assay: Phytotoxicity on cucumber (Experimental Example 4); assay type: in vivo; conditions: 500 ppm
Description: Exterminating test on Fusarium wilt of cucumber Twenty (20) grams of infected soil was added uniformly into each pot which was filled with steam sterilized field soil, then 18 seeds of cucumber (variety; Tokiwazibai) were sowed in each pot. Eighty percent (80%) wettable powder of the present invention was diluted with water to obtain a suspension, and each pot was drenched with the suspension in an amount of 100 ml. Fifty percent (50%) wettable powder of methyl-1-(butylcarbamoyl) 2-benzimidazol carbamate (hereinafter referred to as Benlate) on the market was used as a control and tested by the same method. After two weeks of planting, degrees attacked by the pathogen was observed and a "percentage of healthy seedlings" was calculated as follows: [formula]

[2] = test system: Fusarium wilt of cucumber; assay: Exterminating test on Fusarium wilt of cucumber (Experimental Example 4); assay type: in vivo, Fusarium oxysporum f, cucumerinum; conditions: Fusarium, 336 h; 500 ppm, soil drench 100 ml per pot, two weeks; read-out: Percentage of healthy seedlings
How it was run: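 Pots of steam-sterilized soil mixed with 20 g infested soil, sown with 18 cucumber seeds (Tokiwazibai), drenched with 100 ml aqueous suspension of 80% wettable powder. Benlate 50% wettable powder run as control. Disease scored two weeks after planting as percentage of healthy seedlings.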

[3] = test system: bacteria gathered from circular water system; assay: Degree of propagation on slime test boards (Example 27); assay type: cell-based; conditions: shaking culture for 2 days
Description: (§1) Zero point zero two (0.02) part of active compounds in the form of 10% water soluble concentrate which was prepared by Example 23 was added into 100 parts of Waxman's liquid medium. Peices of Wood iron (hereafter referred to as the slime test boards) were soaked into the Waxman's liquid medium. The bacteria which were gathered from circular water system were inoculated upon the Waxman's liquid medium and incubated at 27°-34° C by shaking culture for 2 days. The degree of propagation of the bacteria on the slime test boards was examined.
(§2) Thegrowth-inhibiting activity of active compounds against the fungi and the green algae was also examined by the same method as mentioned above.
(§3) The degree of propagation of the bacteria, fungi or green algae on the test boards is defined in terms of the following symbols.

[4] = test system: green algae; assay: as above; assay type: cell-based; conditions: same method, shaking culture for 2 days
Description: as §1, §2, §3

[5] = test system: fungi; assay: as above; assay type: cell-based; conditions: same method, shaking culture for 2 days
Description: as §1, §2, §3

[6] = test system: Cladosporium harbarum; assay: Minimum inhibitory amount, dilution methods (Example 24); assay type: cell-based; conditions: (1) potato-dextrose agar dilution method
From the text: (§4) Bactericidal activity and fungicidal activity of the active compounds of the present invention were examined by potato-dextrose agar dilution method, or [2] glucose bouillon medium dilution method. The results are shown in Table 10 below as the minimum inhibitory concentration (the minimum concentration of active compound found to produce 100% control of the test bacteria and fungi).

[7] = test system: Escherichia coli; assay: as above; assay type: cell-based; conditions: (2) glucose bouillon medium dilution method
From the text: as §4

[8] = test system: Penicillium Citrinum; assay: as above; assay type: cell-based; conditions: (1) potato-dextrose agar dilution method
From the text: as §4

[9] = test system: Staphylococcus aureus; assay: as above; assay type: cell-based; conditions: (2) glucose bouillon medium dilution method
From the text: as §4

[10] = test system: Aspergillus niger; assay: as above; assay type: cell-based; conditions: (1) potato-dextrose agar dilution method
From the text: as §4

[11] = test system: Bacillus subtilis; assay: as above; assay type: cell-based; conditions: (2) glucose bouillon medium dilution method
From the text: as §4

[12] = test system: Bacteria, fungi and slime; assay: Inhibition of bacteria, fungi and slime in use (Example 23); conditions: water soluble concentrate; 10-20 ppm in water, 0.01-0.1% in pastes
Description: Before application, the concentrate was diluted 500-1000 times with water and sprayed on the inside of cotes to prevent the growth of bacteria and fungi.
The solution was added to water in circular water systems to inhibit the growth of slime. The concentration of Compound No. 21 in the water was 10-20 ppm.
An amount of 0.01-0.1% of Compound No. 21 as the solution was added to pastes or binding agents to prevent rottenness of them.

[13] = test system: seedlings of kidney beans (variety: Orient); assay: Phytotoxicity on kidney beans (Experimental Example 5); assay type: in vivo; conditions: 1,000 ppm
[14] = test system: summer orange seedlings; assay: Phytotoxicity on summer orange seedlings (Experimental Example 6); assay type: in vivo; conditions: 1,000 ppm
[15] = test system: botrytis cinerea (gray mold); assay: Exterminating test on gray mold of tomato (Experimental Example 5); assay type: in vivo; set-up: scale not given here; conditions: 1,000 ppm, 48 hours after inoculation, kidney bean leaves
Description: Exterminating test on gray mold of tomato The seedlings of kidney beans (variety: Orient) of 5-6 leaves stage were employed in this test. Eighty percent (80%) wettable powder of the present invention was diluted with water and sprayed over the seedlings in an amount of 10 ml per pot. The leaves were cut from the plant at 24 hours after spraying, and placed in the petri dishes (12 cm in diameter). Thereafter disks (5 mm in diameter) were cut with a cork borer from potato dextrose agar on which the pathogen (botrytis cinerea) was cultured. The disks were placed on the leaves. The dishes were placed in such a moistural condition as to cause the pathogen to propagate. Thiophanate methyl 70% wettable powder on the market was used as a control and tested by the same method. After forty eight (48) hours after inoculation, diameters of the lesions were observed, and an "Effect Index" was calculated as follows; [formula]

| SMILES | Phytotoxicity [1] | pest or weed control at 500 ppm [2] [%] | Degree of propagation [3] | Degree of propagation [4] | Degree of propagation [5] | Minimum inhibitory amount [6] [µg/mL] | Minimum inhibitory amount [7] [µg/mL] | Minimum inhibitory amount [8] [µg/mL] | Minimum inhibitory amount [9] [µg/mL] | Minimum inhibitory amount [10] [µg/mL] | Minimum inhibitory amount [11] [µg/mL] | inhibition of bacteria, fungi and slime [12] | Phytotoxicity [13] | Phytotoxicity [14] | Effect Index [15] |
| --- | --- | --- | --- | --- | --- | --- | --- | --- | --- | --- | --- | --- | --- | --- | --- |
| CCCCNC(=O)n1c(NC(=O)OC)nc2ccccc21 [Benlate, methyl-1-(butylcarbamoyl) 2-benzimidazol carbamate, reference compound] | Nil | 45 |  |  |  |  |  |  |  |  |  |  |  |  |  |
| O=C(NC=C(Cl)Cl)c1cc(Cl)ccc1O [Compound No. 21, sodium salt of N-(2'-2'-dichlorovinyl)-5-chlorosalicylamide] |  |  | - | - | - | 5 | 40 | 5 | 2.5 | 10 | 2.5 | inhibited for a long time | Nil | Nil | 80 |
